Measured values reported in patent US4126616A, “N-propylnorapomorphine diesters” (Hinshaw; William B., priority 1976, dated 1978).
Counter-ions that a name gives are not always drawn. Like-named read-outs stand apart in the source and are kept apart here.

System: caudate lesioned mouse
Assay: caudate lesioned mouse test (anti-parkinson activity)
Format: in vivo
Settings: for ED50: caudate lesioned mouse; for responders at 26 µmol/kg: dose 0.026 m. mole/kg; for responders at 52 µmol/kg: dose 0.052 m. mole/kg; for Molar Potency Ratio Claimed/Ref. Ester: claimed N-propyl ester vs corresponding N-methyl reference ester; for responders at 132 µmol/kg: dose 0.132 m. mole/kg; for responders at 94 µmol/kg: dose 0.094 m. mole/kg
Description: An index of anti-parkinson activity was determined using the caudate lesioned mouse test described by Lotti, Life Sci., 10, 781-789 (1971). The mice having unilateral lesions of the caudate nucleus prepared according to the method of Lotti supra were observed immediately after the surgical procedure for strong postural asymmetries directed to the same side as the lesion. When this asymmetry was not observed, the mice were discarded. Operated mice were allowed at least 14 days to recover prior to drug testing. The lesioned mice were tested with apomorphine using 1.7 mg./kg. of base administered intraperitoneally in a 1% suspension in gum tragacanth. […] Only those mice which twisted or circled toward the lesioned side in all three test periods after the apomorphine injection were retained for further drug testing. The test drugs were all administered in 1% gum tragacanth suspension in a volume of 0.1 ml./10 g. of body weight. Doses were expressed in mg./kg. of free base.
Results of tests in the caudate lesioned mouse test described above which were obtained on the compounds of the invention are given in the table below identified, in each case, by the example numbers above where their preparations are described. Corresponding data for reference apomorphine diesters described in German patent application No. 2,154,162 are given in a side-by-side relationship for a number of the species. The reference compounds, designated Ref. 1, Ref. 1B, Ref. 1C, Ref. 1D, Ref. 1E, Ref. 1F, Ref. 2 and Ref. 2A correspond, respectively, to the compounds of the invention identified by Examples 1, 1B, 1C, 1D, 1E, 1F, 2 and 2A and differ from the latter only in having a methyl group on the apomorphine nitrogen from instead of an n-propyl group as present in the instant compounds.

[1] = Mus musculus, 0.5 h, 1/2 h post-drug, read-out: No. Mice Affected/No. Mice Tested, 1/2 h (converted)
[2] = Mus musculus, 1 h post-drug, read-out: No. Mice Affected/No. Mice Tested, 1 h (converted)
[3] = Mus musculus, 2 h post-drug, read-out: No. Mice Affected/No. Mice Tested, 2 h (converted)
[4] = Mus musculus, 4 h post-drug, read-out: No. Mice Affected/No. Mice Tested, 4 h (converted)
[5] = Mus musculus, 6 h post-drug, read-out: No. Mice Affected/No. Mice Tested, 6 h (converted)
[6] = Mus musculus, 24 h post-drug, read-out: No. Mice Affected/No. Mice Tested, 24 h
[7] = Mus musculus, total, read-out: No. Mice Affected/No. Mice Tested, Total (converted)
[8] = Mus musculus, 0.5 h, dose 0.416 m. mole/kg, 1/2 h post-drug, read-out: No. Mice Affected/No. Mice Tested, 1/2 h (converted)
[9] = Mus musculus, dose 0.416 m. mole/kg, 1 h post-drug, read-out: No. Mice Affected/No. Mice Tested, 1 h (converted)
[10] = Mus musculus, dose 0.416 m. mole/kg, 4 h post-drug, read-out: No. Mice Affected/No. Mice Tested, 4 h (converted)
[11] = Mus musculus, dose 0.416 m. mole/kg, 6 h post-drug, read-out: No. Mice Affected/No. Mice Tested, 6 h (converted)
[12] = Mus musculus, dose 0.416 m. mole/kg, 24 h post-drug, read-out: No. Mice Affected/No. Mice Tested, 24 h
[13] = Mus musculus, dose 0.416 m. mole/kg, total, read-out: No. Mice Affected/No. Mice Tested, Total (converted)
[14] = Mus musculus, 0.5 h, dose 0.208 m. mole/kg, 1/2 h post-drug, read-out: No. Mice Affected/No. Mice Tested, 1/2 h (converted)
[15] = Mus musculus, 24 h post-drug, read-out: No. Mice Affected/No. Mice Tested, 24 h (converted)
[16] = Mus musculus, dose 0.208 m. mole/kg, 1 h post-drug, read-out: No. Mice Affected/No. Mice Tested, 1 h
[17] = Mus musculus, dose 0.208 m. mole/kg, 4 h post-drug, read-out: No. Mice Affected/No. Mice Tested, 4 h (converted)
[18] = Mus musculus, dose 0.208 m. mole/kg, 6 h post-drug, read-out: No. Mice Affected/No. Mice Tested, 6 h (converted)
[19] = Mus musculus, dose 0.208 m. mole/kg, 24 h post-drug, read-out: No. Mice Affected/No. Mice Tested, 24 h (converted)
[20] = Mus musculus, dose 0.208 m. mole/kg, total, read-out: No. Mice Affected/No. Mice Tested, Total (converted)
[21] = Mus musculus, 0.5 h, read-out: No. Mice Affected/No. Mice Tested, 1/2 h
[22] = Mus musculus, 1 h, read-out: No. Mice Affected/No. Mice Tested, 1 h
[23] = Mus musculus, 4 h, read-out: No. Mice Affected/No. Mice Tested, 4 h
[24] = Mus musculus, 6 h, read-out: No. Mice Affected/No. Mice Tested, 6 h
[25] = Mus musculus, 24 h, read-out: No. Mice Affected/No. Mice Tested, 24 h
[26] = Mus musculus, read-out: No. Mice Affected/No. Mice Tested, Total

Work on `CCCN1CCc2cccc3c2C1Cc1ccc(OC(=O)c2ccccc2C)c(OC(=O)c2ccccc2C)c1-3` (centres unmarked) [Ex. 1G, N-Propylnorapomorphine bis-2-methylbenzoate] yielded an ED50 (ED50, read-out: ED50) of 26 µmol/kg, a responders at 26 µmol/kg [1] of 25% and a responders at 26 µmol/kg [2] of 50%. For the same compound, the responders at 26 µmol/kg [3] was 50%, the responders at 26 µmol/kg [4] was 50% and the responders at 26 µmol/kg [5] was 50%. The responders at 26 µmol/kg [6] was 0% and the responders at 26 µmol/kg [7] was 50%.

`CN1CCc2cccc3c2C1Cc1ccc(OC(=O)c2ccccc2)c(OC(=O)c2ccccc2)c1-3` (centres unmarked) [Ref. 1E, reference compound] was tested, and the responders at 416 µmol/kg [8] was 0%, the responders at 416 µmol/kg [9] was 0% and the responders at 416 µmol/kg [10] was 0%. For the same compound, the responders at 416 µmol/kg [11] was 0%, the responders at 416 µmol/kg [12] was 0% and the responders at 416 µmol/kg [13] was 0%.

`CCCN1CCc2cccc3c2C1Cc1ccc(OC(=O)c2ccccc2)c(OC(=O)c2ccccc2)c1-3` (centres unmarked) [Ex. 1E, N-Propylnorapomorphine dibenzoate hydrochloride] showed a responders at 52 µmol/kg [1] of 0%, a responders at 52 µmol/kg [2] of 0% and a responders at 52 µmol/kg [4] of 66.7%. The responders at 52 µmol/kg [5] was 33.3%, the responders at 52 µmol/kg [6] was 0% and the responders at 52 µmol/kg [7] was 66.7%. For the same compound, the “Molar Potency Ratio Claimed/Ref. Ester” value was at least 8.

In the case of `CCCN1CCc2cccc3c2C1Cc1ccc(OC(=O)c2ccc(Cl)cc2)c(OC(=O)c2ccc(Cl)cc2)c1-3` (centres unmarked) [Ex. 1F, N-Propylnorapomorphine bis-4-chlorobenzoate], the responders at 132 µmol/kg [1] is reported as 0%, the responders at 208 µmol/kg [14] is reported as 33.3% and the responders at 132 µmol/kg [2] is reported as 25%. The responders at 132 µmol/kg [4] was 0%, the responders at 132 µmol/kg [5] was 25% and the responders at 132 µmol/kg [15] was 0%. It also gave a responders at 132 µmol/kg [7] of 25%, a responders at 208 µmol/kg [16] of 0% and a responders at 208 µmol/kg [17] of 66.7%. It also gave a responders at 208 µmol/kg [18] of 100%, a responders at 208 µmol/kg [19] of 33.3% and a responders at 208 µmol/kg [20] of 100%. For the same compound, the “Molar Potency Ratio Claimed/Ref. Ester” value was at least 3.

Work on `CCCN1CCc2cccc3c2C1Cc1ccc(OC(=O)c2ccc(C)cc2)c(OC(=O)c2ccc(C)cc2)c1-3` (centres unmarked) [Ex. 1H, N-Propylnorapomorphine bis-4-methylbenzoate] yielded an ED50 (ED50, read-out: ED50) of 70 µmol/kg, a responders at 26 µmol/kg [1] of 0% and a responders at 94 µmol/kg [1] of 100%. For the same compound, the responders at 26 µmol/kg [2] was 0%, the responders at 26 µmol/kg [3] was 0% and the responders at 26 µmol/kg [4] was 0%. The responders at 26 µmol/kg [5] was 0%, the responders at 26 µmol/kg [6] was 0% and the responders at 26 µmol/kg [7] was 0%. The responders at 94 µmol/kg [2] was 75%, the responders at 94 µmol/kg [3] was 75% and the responders at 94 µmol/kg [4] was 75%. The responders at 94 µmol/kg [5] was 75%, the responders at 94 µmol/kg [15] was 75% and the responders at 94 µmol/kg [7] was 100%.

Compound `CN1CCc2cccc3c2C1Cc1ccc(OC(=O)C(C)(C)C)c(OC(=O)C(C)(C)C)c1-3` (centres unmarked) [Ref. 1C, reference compound] has a responders at 208 µmol/kg [14] of 0%, a responders at 416 µmol/kg [8] of 0% and a responders at 208 µmol/kg [16] of 0%. It also gave a responders at 208 µmol/kg [17] of 0%, a responders at 208 µmol/kg [18] of 0% and a responders at 208 µmol/kg [19] of 0%. For the same compound, the responders at 208 µmol/kg [20] was 0%, the responders at 416 µmol/kg [9] was 33.3% and the responders at 416 µmol/kg [10] was 66.7%. For the same compound, the responders at 416 µmol/kg [11] was 66.7%, the responders at 416 µmol/kg [12] was 0% and the responders at 416 µmol/kg [13] was 66.7%.

`CC(=O)Oc1ccc2c(c1OC(C)=O)-c1cccc3c1C(C2)N(C)CC3` (centres unmarked) [Ref. 2, reference compound] gave a responders at 208 µmol/kg [21] of 0%, a responders at 416 µmol/kg [21] of 25% and a responders at 208 µmol/kg [22] of 0%. The responders at 416 µmol/kg [22] was 50%, the responders at 208 µmol/kg [23] was 0% and the responders at 416 µmol/kg [23] was 75%. For the same compound, the responders at 208 µmol/kg [24] was 0%, the responders at 416 µmol/kg [24] was 75% and the responders at 208 µmol/kg [25] was 25%. The responders at 416 µmol/kg [25] was 25%, the responders at 208 µmol/kg [26] was 25% and the responders at 416 µmol/kg [26] was 75%.

With `CCCN1CCc2cccc3c2C1Cc1ccc(O)c(O)c1-3` (centres unmarked) [N-propylnorapomorphine] the ED50 (Mus musculus, po, read-out: ED50, on oral administration, oral) was 3.2 µmol/kg.

For `CCCCCCCCCCCCCCCC(=O)Oc1ccc2c(c1OC(=O)CCCCCCCCCCCCCCC)-c1cccc3c1C(C2)N(C)CC3` (centres unmarked) [Ref. 1D, reference compound], the responders at 208 µmol/kg [14] was 0%, the responders at 416 µmol/kg [8] was 0% and the responders at 208 µmol/kg [16] was 0%. The responders at 208 µmol/kg [17] was 0%, the responders at 208 µmol/kg [18] was 0% and the responders at 208 µmol/kg [19] was 0%. For the same compound, the responders at 208 µmol/kg [20] was 0%, the responders at 416 µmol/kg [9] was 0% and the responders at 416 µmol/kg [10] was 0%. The responders at 416 µmol/kg [11] was 0%, the responders at 416 µmol/kg [12] was 0% and the responders at 416 µmol/kg [13] was 0%.
